Like-named read-outs stand apart in the source and are kept apart here.

In series [1] the test system is rats. The experiment in a line: Pharmacological characteristics at equivalent doses (2×ED50) in rats. The settings on record: 2×ED50, tail vein; for Adverse reactions: Red urine (incidence): DMSO solution (DMSO alone 10/10); for Onset time: time of LORR; for Adverse reactions: Tremor (incidence): animals affected/animals. In a few lines: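 Adult male Sprague-Dawley rats (250-300 g, n=8) received each drug at twice its ED50 via tail vein (0.6 mL at 0.1 mL/s). Onset of anesthesia taken as time to LORR.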

The subject of series [2] is rats. As to conditions: continuous tail vein infusion at 2×MIR, LORR maintained 1 hour. The procedure:
Pharmacological Effects of the Compounds on Continuous Infusion in Rats
Adult male Sprague-Dawley rats with body weight ranging from 250 to 300 gm were selected for continuous infusion test. […] Time to recovery of righting reflex from stopping infusion, and time to fully awake from stopping infusion were recorded.

In series [3] the test system is rats. The class given is in vivo, rat. As to conditions: rats of the MAP/HR figures, 2×ED50, tail vein; same value in min. In a few lines:
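Rats implanted with telemetry (left ventricular and abdominal aortic catheters, ECG leads) at least one week before recording; compounds given via lateral tail-vein catheter. MAP and HR sampled every 15 s for 30 min before and after dosing to judge hemodynamic stability.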

Series [4] deals with rats. The experiment in a line: Loss of righting reflexes (LORR) assay in rats, ED50 by up and down method. The class given is in vivo, rat. As to conditions: tail vein, class symbols; for ED50: Rattus norvegicus. In a few lines:
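Adult male Sprague-Dawley rats (250-300 g) dosed i.v. via tail vein at 0.1 mL/s. Anesthesia scored as loss of righting reflex lasting >30 s; ED50 derived by up-and-down method.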

Series [5] deals with rats. As to the method: Adult male Sprague-Dawley rats (250-300 g) were selected for the experiment. […] The anesthesia effects of the compounds were assessed in rats using a LORR assay and a period >30 s was considered as an indicator of general anesthesia. Then the up and down method was used to determine 50% effective dose (ED50). The drugs were administered through the tail vein of rats in a volume of 0.6 mL and at a rate of 0.1 mL/s.

Series [6] relates to rats. The class given is in vivo, rat. The settings on record: rats of the MAP/HR figures, 2×ED50, tail vein.

One may read the ED50 as the dose at which the effect has come halfway, by size or by number of responders. Lower therefore signals an effect at a small dose. Regarding `C#CC1(OC(=O)c2cncn2[C@H](C)c2ccccc2)COC1` [Compound D3], in series [1], the “Adverse reactions: Restlessness (incidence)” value is “Restlessness (4/8), Red”; the “Righting reflex duration” value was 1.05 ± 0.29 min; the “Adverse reactions: Red urine (incidence)” value is on record as “urine (8/8)”; the “Onset time” value is 0.19 ± 0.05 min. In addition, in series [2] (Table D4), the Onset time fell in the range of 2 to 3 min; the “Recovery time after stopping infusion” value lay within 7 to 9 min; the “Types and incidence of adverse reactions” value is “Restlessness (2/6), Tremor (3/6)”. Besides, the “recovery time of the test animals' righting reflex” value in series [3] stood at 1.27 min. In series [4], this compound registered an ED50 of 0.5 to 1 mg/kg. Moreover, in series [5], the Approximate therapeutic index was >10 and the “Minimal lethal dose” value is >8 mg/kg. Moreover, the “recovery time of the test animals' righting reflex” value in series [6] is listed as 76 s.

As for `C#CC1(COC(=O)c2cncn2[C@H](C)c2ccccc2)CCC1` [Compound D10], in series [1], the “Righting reflex duration” value was 6.04 ± 2.27 min; the “Adverse reactions: Red urine (incidence)” value is “(8/8)”; the “Adverse reactions: Tremor (incidence)” value is “Tremor (2/8), Red urine”; the “Onset time” value is 0.14 ± 0.03 min. Besides, in series [2] (Table D4), the Onset time fell in the range of 3 to 4 min; the “Recovery time after stopping infusion” value fell in the range of 13 to 17 min; the “Types and incidence of adverse reactions” value is reported as “Tremor (6/6)”. The “recovery time of the test animals' righting reflex” value in series [3] is 10.08 min. In series [4], this compound showed an ED50 of 0.5 to 1 mg/kg. Besides, in series [5], the Approximate therapeutic index is >12 and the “Minimal lethal dose” value is >6 mg/kg. The “recovery time of the test animals' righting reflex” value in series [6] is 605 s.

`C=C=CC(C)OC(=O)c1cncn1[C@H](C)c1ccccc1` (stereo partly shown) [Compound D22]: in series [1], the “Adverse reactions: Euphoria (incidence)” value is given as “Euphoria (1/8), Red”; the “Righting reflex duration” value is 4.51 ± 1.63 min; the “Adverse reactions: Red urine (incidence)” value is “urine (8/8)”; the “Onset time” value turned out to be 0.24 ± 0.07 min. Moreover, in series [2] (Table D4), the Onset time lay in the range of 3 to 4 min; the “Recovery time after stopping infusion” value was 14 to 18 min; the “Types and incidence of adverse reactions” value is listed as “Euphoria (2/6), Tremor (4/6)”. For the same compound, the “recovery time of the test animals' righting reflex” value in series [3] is given as 0.83 min. Further, the ED50 in series [4] fell in the range of 0.1 to 0.5 mg/kg. Moreover, in series [5], the Approximate therapeutic index is reported as >11 and the “Minimal lethal dose” value is listed as >2 mg/kg. For the same compound, the “recovery time of the test animals' righting reflex” value in series [6] was 50 s.

With `C=CC(C)(C)OC(=O)c1c(F)ncn1[C@H](C)c1ccccc1` [Compound E32], in series [1], the “Righting reflex duration” value came out at 3.86 ± 1.13 min; the “Sedation duration (mg/kg)” value was found to be 8.70 ± 2.07; the “Adverse reactions: Red urine (incidence)” value is on record as “urine (8/8)”; the “Adverse reactions: Tremor (incidence)” value is listed as “(3/8), Red”. Besides, in series [1], the “Onset time” value was 0.30 ± 0.14 min. For the same compound, in series [2] (Table E4), the Onset time was 2 to 3 min; the “Recovery time after stopping infusion” value was in the range of 12 to 16 min; the “Types and incidence of adverse reactions” value was “Tremor (2/6), Tongue stretching (3/6)”. In addition, the “recovery time of the test animals' righting reflex” value in series [3] turned out to be 3.65 min. Besides, the “ED50 (mg/kg)” value in series [4] is “B (B means that the measured ED50 is in the range of 0.10-0.50 mg/kg (excluding 0.10 mg/kg, including 0.50 mg/kg).)”. Also, in series [5], the Approximate therapeutic index is given as >30 and the “Minimal lethal dose” value is recorded as >4 mg/kg. For the same compound, the “recovery time of the test animals' righting reflex” value in series [6] came to 219 s.

As to `C=C=CC1(OC(=O)c2c(F)ncn2[C@H](C)c2ccccc2)CCC1` [Compound E64], in series [1], the “Righting reflex duration” value is recorded as 2.28 ± 1.28 min; the “Adverse reactions: Red urine (incidence)” value is listed as “urine (8/8)”; the “Adverse reactions: Tremor (incidence)” value is listed as “(2/8), Red”; the “Onset time” value turned out to be 0.31 ± 0.06 min. Moreover, in series [2] (Table E4), the Onset time was in the range of 2 to 3 min; the “Recovery time after stopping infusion” value fell in the range of 11 to 14 min; the “Types and incidence of adverse reactions” value is reported as “No”. The “recovery time of the test animals' righting reflex” value in series [3] was 2.48 min. In addition, the ED50 in series [4] lay within 0.01 to 0.1 mg/kg. Further, in series [5], the Approximate therapeutic index is given as >40 and the “Minimal lethal dose” value was >1.5 mg/kg. Also, in series [6], the “recovery time of the test animals' righting reflex” value is listed as 149 s.

Consider `C=C=CC1(SC(=O)c2c(F)ncn2[C@H](C)c2ccccc2)CSC1` [Compound E90], for which, in series [1], the “Righting reflex duration” value is 1.29 ± 0.64 min; the “Adverse reactions: Red urine (incidence)” value is given as “urine (8/8)”; the “Adverse reactions: Tremor (incidence)” value is reported as “(1/8), Red”; the “Onset time” value amounted to 0.50 ± 0.20 min. In series [2] (Table E4), the Onset time lay in the range of 2 to 3 min; the “Recovery time after stopping infusion” value is 9 to 12 min; the “Types and incidence of adverse reactions” value is “Tremor (2/6)”. In addition, the “recovery time of the test animals' righting reflex” value in series [3] came out at 1.42 min. In series [4], this compound showed an ED50 of 0.01 to 0.1 mg/kg. Besides, in series [5], the Approximate therapeutic index was >30 and the “Minimal lethal dose” value is on record as >1.5 mg/kg. The “recovery time of the test animals' righting reflex” value in series [6] is listed as 85 s.

For `CCOC(=O)c1c(Cl)ncn1[C@H](C)c1ccccc1` [Compound E100], in series [1], the “Righting reflex duration” value was 1.98 ± 1.85 min; the “Sedation duration (mg/kg)” value amounted to 5.82 ± 2.11; the “Adverse reactions: Red urine (incidence)” value was “urine (8/8)”; the “Adverse reactions: Tremor (incidence)” value is reported as “(5/8), Red”. Also, in series [1], the “Onset time” value was 0.60 ± 0.24 min. In series [2] (Table E4), the Onset time is 2 to 3 min; the “Recovery time after stopping infusion” value fell in the range of 9 to 14 min; the “Types and incidence of adverse reactions” value is reported as “Tremor (3/6)”. Moreover, in series [3], the “recovery time of the test animals' righting reflex” value is 1.83 min. Besides, the “ED50 (mg/kg)” value in series [4] is reported as “B (B means that the measured ED50 is in the range of 0.10-0.50 mg/kg (excluding 0.10 mg/kg, including 0.50 mg/kg).)”. Moreover, in series [5], the Approximate therapeutic index is on record as >30 and the “Minimal lethal dose” value is >12 mg/kg. Moreover, the “recovery time of the test animals' righting reflex” value in series [6] is on record as 110 s.

For `CC#CC(C)OC(=O)c1c(Cl)ncn1[C@H](C)c1ccccc1` (stereo partly shown) [Compound E116], in series [1], the “Righting reflex duration” value was 1.18 ± 0.56 min, the “Adverse reactions: Red urine (incidence)” value is “(8/8)” and the “Onset time” value is 0.61 ± 0.23 min. In series [2] (Table E4), the Onset time fell in the range of 3 to 4 min; the “Recovery time after stopping infusion” value was in the range of 11 to 15 min; the “Types and incidence of adverse reactions” value is “Tremor (1/6), Tongue stretching (3/6)”. Moreover, the “recovery time of the test animals' righting reflex” value in series [3] came to 1.53 min. Besides, the ED50 in series [4] fell in the range of 0.5 to 1 mg/kg. Further, in series [5], the Approximate therapeutic index was >16 and the “Minimal lethal dose” value is on record as >10 mg/kg. Further, the “recovery time of the test animals' righting reflex” value in series [6] stood at 92 s.

`CCOC(=O)c1c(Cl)nc(Cl)n1[C@H](C)c1ccccc1` [Compound E129]: in series [1], the “Righting reflex duration” value came out at 0.68 ± 0.34 min; the “Adverse reactions: Red urine (incidence)” value is “urine (8/8)”; the “Adverse reactions: Tremor (incidence)” value was “(3/8), Red”; the “Onset time” value is on record as 0.87 ± 0.26 min. In series [2] (Table E4), the Onset time fell in the range of 3 to 4 min; the “Recovery time after stopping infusion” value was in the range of 8 to 13 min; the “Types and incidence of adverse reactions” value was “No”. The “recovery time of the test animals' righting reflex” value in series [3] is 0.87 min. In addition, the ED50 in series [4] is 0.1 to 0.5 mg/kg. Moreover, in series [5], the Approximate therapeutic index is >30 and the “Minimal lethal dose” value is recorded as >9 mg/kg. For the same compound, in series [6], the “recovery time of the test animals' righting reflex” value worked out at 52 s.

The record behind these values is patent US11434205B2, “Substituted imidazole carboxylate derivatives and the use thereof” (priority 2018, dated 2022).
